Laboratory results taken from PMC8690038, “Mechanism of the feedback-inhibition resistance in aspartate kinase of Corynebacterium pekinense: from experiment to MD simulations” (RSC Advances, 2020).
Residue numbers refer to the chain shown, from its start. Names and notes keep the numbering of the source.

T1: WT (Corynebacterium glutamicum, UniProt P26512)
T1 construct: gene lysC; recombinant from pET-28a-AK, His Trap purified, about 48 kDa
T1 sequence (P26512 1-421): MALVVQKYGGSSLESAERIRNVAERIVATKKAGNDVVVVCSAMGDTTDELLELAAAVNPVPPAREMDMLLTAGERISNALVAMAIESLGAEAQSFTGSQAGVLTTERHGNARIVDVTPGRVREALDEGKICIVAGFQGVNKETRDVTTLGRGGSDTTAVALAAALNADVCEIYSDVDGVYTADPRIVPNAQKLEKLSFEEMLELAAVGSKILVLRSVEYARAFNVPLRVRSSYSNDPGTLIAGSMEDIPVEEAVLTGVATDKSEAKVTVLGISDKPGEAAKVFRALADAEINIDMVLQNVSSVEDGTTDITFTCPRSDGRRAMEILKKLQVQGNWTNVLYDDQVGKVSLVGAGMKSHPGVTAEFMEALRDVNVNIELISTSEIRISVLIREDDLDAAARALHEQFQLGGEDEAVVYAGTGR

B1: WT (Corynebacterium glutamicum ATCC 13032) (protein)
chain: T1 sequence (P26512 1-421)
notes: recombinant from pET-28a-AK, His Trap purified, about 48 kDa
B2: T379N/A380C (Corynebacterium glutamicum ATCC 13032; A362C/T361N) (protein)
chain: T1 sequence (P26512 1-421) with T361N, A362C
notes: recombinant from pET-28a-AK in E. coli BL21, His Trap purified, about 48 kDa
B3: A380C (Corynebacterium glutamicum ATCC 13032; A362C) (protein)
chain: T1 sequence (P26512 1-421) with A362C
notes: as for B2

Key:
WT [1] = biological target: T1, WT; test: Microscale thermophoresis of NT-647-NHS-labelled AK (40 nM) with diluted Asp in the enzyme activity measurement system, 28 °C, Monolith NT.115, no Lys added.; type: binding; details: read-out: K d (mM) Asp
Experimental: (§1) The purified AK concentration was adjusted to 2–20 μM with labeled buffer. The solid fluorescent dye (NT-647-NHS) was appended with 100% DMSO (30 μL) and dissolved thoroughly after vortex vibration. Then the dyes were adjusted to 2–3 folds of the protein concentration with the marker buffer. Protein and the solid fluorescent dye were mingled in equal proportion for dark reaction 30 min, and then purified according to the purification kit operation. The unlabeled substrate Asp and inhibitor Lys were diluted in the enzymatic activity measurement system, and the final concentration ranged from […], respectively, which they were incubated with the labeled protein (40 nM) at room temperature for 10 min. Then the samples were loaded into the Standard Capillaries from Nano Temper Technologies. Thermophoresis was measured 30 min after incubation at 28 °C on Monolith NT.115.[22] The dissociation constant (Kd) values were fitted by means of the MO. Affinity analysis software.

WT [2] = biological target: T1, WT; test: Microscale thermophoresis of NT-647-NHS-labelled AK (40 nM) with diluted Lys in the enzyme activity measurement system, 28 °C, Monolith NT.115.; type: binding; details: read-out: K d (mM) Lys
Experimental: as §1

CpAK mutant A380C [3] = biological target: T2, CpAK mutant A380C (Corynebacterium glutamicum, UniProt P26512, A362C); test: Microscale thermophoresis (MST), A380C; type: binding, Corynebacterium pekinense
T2 construct: His-tag (pET-28a) (N); made in house; host or cells: E. coli BL21
Experimental: as §1

WT (wild-type CpAK) = test: Microscale thermophoresis (MST), WT; type: binding, Corynebacterium pekinense; details: 28 °C
Experimental: as §1

CpAK mutant A380C [4] = biological target: T2, CpAK mutant A380C; test: biochemical; parameters: species or system Corynebacterium pekinense; details: read-out: Relative activity (%)
Experimental: (§2) The reaction was performed through adding 20 μL purified enzyme and 20 μL substrate inhibitors (Lys, Thr, Met, Lys + Thr, Lys + Met, Thr + Met, and Lys + Thr + Met) at 0.2, 1, 5, and 10 mM. The reaction was finished by adding volume FeCl3 after 30 min and the absorbance was measured at 540 nm. Water was instead of the substrate inhibitor as blank control. The enzyme activity of blank control was defined as 100%.

CpAK mutant T379N/A380C [5] = biological target: T3, CpAK mutant T379N/A380C (Corynebacterium glutamicum, UniProt P26512, A362C/T361N); test: biochemical; parameters: species or system Corynebacterium pekinense; details: read-out: Relative activity (%)
T3 construct: His-tag (pET-28a) (N); made in house; host or cells: E. coli BL21
Experimental: as §2

CpAK mutant T379N/A380C [6] = biological target: T3, CpAK mutant T379N/A380C; test: Microscale thermophoresis (MST), T379N/A380C; type: binding, Corynebacterium pekinense
Experimental: as §1

[7] = substrate: N[C@@H](CC(=O)O)C(=O)O; test: Colorimetric end-point assay (FeCl3, 540 nm) with 0.5-16 mM L-Asp, 10.4 mM ATP, 1.6 mM MgSO4, 800 mM KCl, 800 mM NH4OH, 100 mM Tris-HCl pH 8.0, 28 °C, 30 min; fitted with the Hill equation.; type: biochemical
Experimental: The reaction system (1 mL) contained at the final concentration: 1.6 mM MgSO4, 800 mM KCl, 0.5–16 mM L-Asp, 10.4 mM ATP (dissoluted by 25 mM Tris–HCl), 100 mM Tris–HCl buffer solution (pH 8.0), 10 mM β-mercaptoethanol, and 800 mM NH4OH. The water was instead of L-Asp as blank control. The reaction was generated by adding 50 μL purified enzyme at 28 °C for 30 min, and stopped by adding FeCl3 solution (three parallel, below the same) and the absorbance were determined at 540 nm. The nonlinear curve was fitted by the Hill equation (V = Vmax (S^n)/(K^n + S^n)) using Origin 8.5 software. In the equation, the n value represents the Hill coefficient; the K value is equal to the substrate concentration at half the maximum rate of enzymatic reaction; Vmax and V indicate the maximum velocity and reaction rate, respectively; S means the substrate concentration.

T2 sequence (P26512 whole entry A362C): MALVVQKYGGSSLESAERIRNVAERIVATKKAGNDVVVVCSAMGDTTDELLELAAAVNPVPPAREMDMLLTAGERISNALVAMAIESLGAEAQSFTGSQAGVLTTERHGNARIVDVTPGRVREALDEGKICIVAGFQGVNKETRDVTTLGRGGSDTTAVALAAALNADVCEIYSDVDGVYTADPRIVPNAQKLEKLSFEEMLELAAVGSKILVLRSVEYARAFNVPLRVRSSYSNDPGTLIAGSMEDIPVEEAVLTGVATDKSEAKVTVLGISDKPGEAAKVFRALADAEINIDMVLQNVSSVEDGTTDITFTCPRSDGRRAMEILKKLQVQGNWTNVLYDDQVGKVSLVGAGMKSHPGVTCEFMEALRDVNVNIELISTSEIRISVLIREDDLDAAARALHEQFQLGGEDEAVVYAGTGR
T3 sequence (P26512 whole entry T361N/A362C): as the sequence (P26512 whole entry A362C) above, with T361N counted along it

Molecule | activity at 200 µM (CpAK mutant A380C [4]) | activity at 1000 µM (CpAK mutant A380C [4]) | activity at 5000 µM (CpAK mutant A380C [4]) | activity at 10000 µM (CpAK mutant A380C [4]) | activity at 200 µM (CpAK mutant T379N/A380C [5]) | activity at 1000 µM (CpAK mutant T379N/A380C [5]) | activity at 5000 µM (CpAK mutant T379N/A380C [5]) | activity at 10000 µM (CpAK mutant T379N/A380C [5]) | Km [7] | also measured
N[C@@H](CC(=O)O)C(=O)O [Asp, L-aspartic acid (L-Asp)] | – | – | – | – | – | – | – | – | – | Kd (WT [1]): 655.1 ± 0.9 mM
NCCCC[C@H](N)C(=O)O [Lys, lysine] | 94.8 ± 0.97% | 95.7 ± 1.43% | 99.7 ± 0.54% | 104 ± 1.32% | 96.99 ± 0.56% | 98.8 ± 4.95% | 106.9 ± 0.56% | 116 ± 1.81% | – | Kd (WT [2]): 1.32 mM; Kd (CpAK mutant A380C [3]): 5.32 ± 0.01 mM; Kd (WT (wild-type CpAK)): 1.32 mM; Kd (CpAK mutant T379N/A380C [6]): 9.24 mM
CSCC[C@H](N)C(=O)O [Met, methionine] | 95.1 ± 1.69% | 97.71 ± 0.85% | 98.3 ± 2.6% | 98.1 ± 1.89% | 90.47 ± 0.12% | 96.33 ± 0.56% | 98.12 ± 0.44% | 99.47 ± 0.53% | – | –
C[C@@H](O)[C@H](N)C(=O)O [Thr, threonine] | 78.3 ± 1.19% | 80.9 ± 3.06% | 82.1 ± 3.56% | 87.8 ± 3.53% | 94.6 ± 3.26% | 97.06 ± 0.68% | 97.8 ± 1.95% | 98.12 ± 0.44% | – | –
B1 | – | – | – | – | – | – | – | – | 4.17 mM | –
B2 | – | – | – | – | – | – | – | – | 2.89 mM | –
B3 | – | – | – | – | – | – | – | – | 3.57 mM | –
